In brackets after ≈: the same amount, converted by molar mass. Activity calls are given as the source filed them. The rule behind the calls is not given here.
Columns and labels:
Klebsiella aerogenes = test: Antibacterial activity against Klebsiella aerogenes at 256 ug/ml by broth microdilution method; format: functional, organism-based; conditions: dose 256.0 µg/ml
Staphylococcus aureus [1] = test: Antibacterial activity against methicillin-resistant Staphylococcus aureus by broth microdilution method; format: functional
Staphylococcus aureus [2] = test: Antibacterial activity against Staphylococcus aureus at 256 ug/ml by broth microdilution method; format: functional, organism-based; conditions: dose 256.0 µg/ml
Klebsiella pneumoniae = test: Antibacterial activity against Klebsiella pneumoniae at 256 ug/ml by broth microdilution method; format: functional, organism-based; conditions: dose 256.0 µg/ml
Acinetobacter baumannii = test: Antibacterial activity against Acinetobacter baumannii at 256 ug/ml by broth microdilution method; format: functional, organism-based; conditions: dose 256.0 µg/ml
Staphylococcus aureus [3] = test: Antibacterial activity against Staphylococcus aureus by broth microdilution method; format: functional
Pseudomonas aeruginosa = test: Antibacterial activity against Pseudomonas aeruginosa at 256 ug/ml by broth microdilution method; format: functional, organism-based; conditions: dose 256.0 µg/ml
Staphylococcus aureus [4] = test: Antibacterial activity against Staphylococcus aureus; format: functional
Staphylococcus aureus [5] = test: Antibacterial activity against methicillin-resistant Staphylococcus aureus; format: functional

COc1cc(C(=O)/C=C/c2cccc(C(F)(F)F)c2)cc([N+](=O)[O-])c1O
Activity (Klebsiella aerogenes): inactive
MIC (Staphylococcus aureus [1]): 64 µg/mL (≈ 174 µM)
Activity (Staphylococcus aureus [2]): Active
Activity (Klebsiella pneumoniae): inactive
Activity (Acinetobacter baumannii): inactive
MIC (Staphylococcus aureus [3]): 32 µg/mL (≈ 87.1 µM)
Activity (Pseudomonas aeruginosa): inactive

CC(=O)N1N=C(c2cc(O)c(O)c([N+](=O)[O-])c2)CC1c1ccc(Cl)cc1 (centres undefined)
MIC (Staphylococcus aureus [4]): 0.5 µg/mL (≈ 1.33 µM)
MIC (Staphylococcus aureus [5]): 32 µg/mL (≈ 85.2 µM)

COc1cc(C(=O)/C=C/c2ccc(Br)cc2F)ccc1O
Activity (Klebsiella aerogenes): inactive
Activity (Staphylococcus aureus [2]): inactive
Activity (Klebsiella pneumoniae): inactive
Activity (Acinetobacter baumannii): inactive
Activity (Pseudomonas aeruginosa): inactive

COc1cc(C(=O)/C=C/c2ccc(Cl)c(Cl)c2)cc([N+](=O)[O-])c1O
Activity (Klebsiella aerogenes): inactive
MIC (Staphylococcus aureus [1]): 8 µg/mL (≈ 21.7 µM)
Activity (Staphylococcus aureus [2]): Active
Activity (Klebsiella pneumoniae): inactive
Activity (Acinetobacter baumannii): inactive
MIC (Staphylococcus aureus [3]): 8 µg/mL (≈ 21.7 µM)
Activity (Pseudomonas aeruginosa): inactive

COc1cc(C(=O)/C=C/c2ccc([N+](=O)[O-])cc2)cc([N+](=O)[O-])c1O
Activity (Klebsiella aerogenes): inactive
MIC (Staphylococcus aureus [1]): 64 µg/mL (≈ 186 µM)
Activity (Staphylococcus aureus [2]): Active
Activity (Klebsiella pneumoniae): inactive
Activity (Acinetobacter baumannii): inactive
MIC (Staphylococcus aureus [3]): 32 µg/mL (≈ 92.9 µM)
Activity (Pseudomonas aeruginosa): inactive

COc1cc(C(=O)/C=C/c2ccc(Cl)cc2Cl)ccc1O
Activity (Klebsiella aerogenes): inactive
Activity (Staphylococcus aureus [2]): inactive
Activity (Klebsiella pneumoniae): inactive
Activity (Acinetobacter baumannii): inactive
Activity (Pseudomonas aeruginosa): inactive

O=C(/C=C/c1ccc(Cl)c(Cl)c1)c1cc(O)c(O)c([N+](=O)[O-])c1
MIC (Staphylococcus aureus [4]): 1 µg/mL (≈ 2.82 µM)
MIC (Staphylococcus aureus [5]): 16 µg/mL (≈ 45.2 µM)

COc1cc(C(=O)/C=C/c2ccc(SC)cc2)cc([N+](=O)[O-])c1O
Activity (Klebsiella aerogenes): inactive
MIC (Staphylococcus aureus [1]): > 256 µg/mL
Activity (Staphylococcus aureus [2]): Active
Activity (Klebsiella pneumoniae): inactive
Activity (Acinetobacter baumannii): inactive
MIC (Staphylococcus aureus [3]): 128 µg/mL (≈ 371 µM)
Activity (Pseudomonas aeruginosa): inactive

COc1cc(C(=O)/C=C/c2ccc(F)cc2)ccc1O
Activity (Klebsiella aerogenes): inactive
Activity (Staphylococcus aureus [2]): inactive
Activity (Klebsiella pneumoniae): inactive
Activity (Acinetobacter baumannii): inactive
Activity (Pseudomonas aeruginosa): inactive

CCOc1ccc(/C=C/C(=O)c2ccc(O)c(OC)c2)cc1
Activity (Klebsiella aerogenes): inactive
MIC (Staphylococcus aureus [1]): 32 µg/mL (≈ 107 µM)
Activity (Staphylococcus aureus [2]): Active
Activity (Klebsiella pneumoniae): inactive
Activity (Acinetobacter baumannii): inactive
MIC (Staphylococcus aureus [3]): 16 µg/mL (≈ 53.6 µM)
Activity (Pseudomonas aeruginosa): inactive

COc1cc(C(=O)/C=C/c2ccc(Cl)c(Cl)c2)ccc1O
Activity (Klebsiella aerogenes): inactive
Activity (Staphylococcus aureus [2]): inactive
Activity (Klebsiella pneumoniae): inactive
Activity (Acinetobacter baumannii): inactive
Activity (Pseudomonas aeruginosa): inactive

COc1cc(C(=O)/C=C/c2ccc(Cl)cc2Cl)cc([N+](=O)[O-])c1O
Activity (Klebsiella aerogenes): inactive
MIC (Staphylococcus aureus [1]): 256 µg/mL (≈ 695 µM)
Activity (Staphylococcus aureus [2]): Active
Activity (Klebsiella pneumoniae): inactive
Activity (Acinetobacter baumannii): inactive
MIC (Staphylococcus aureus [3]): 256 µg/mL (≈ 695 µM)
Activity (Pseudomonas aeruginosa): inactive

COc1cc(C(=O)/C=C/c2ccc(Cl)cc2)ccc1O
Activity (Klebsiella aerogenes): inactive
Activity (Staphylococcus aureus [2]): inactive
Activity (Klebsiella pneumoniae): inactive
Activity (Acinetobacter baumannii): inactive
Activity (Pseudomonas aeruginosa): inactive

COc1cc(C(=O)/C=C/c2ccc(SC)cc2)ccc1O
Activity (Klebsiella aerogenes): inactive
Activity (Staphylococcus aureus [2]): inactive
Activity (Klebsiella pneumoniae): inactive
Activity (Acinetobacter baumannii): inactive
Activity (Pseudomonas aeruginosa): inactive

COc1cc(C(=O)/C=C/c2cccc(F)c2)ccc1O
Activity (Klebsiella aerogenes): inactive
Activity (Staphylococcus aureus [2]): inactive
Activity (Klebsiella pneumoniae): inactive
Activity (Acinetobacter baumannii): inactive
Activity (Pseudomonas aeruginosa): inactive

COc1cc(C(=O)/C=C/c2cccc(C(F)(F)F)c2)ccc1O
Activity (Klebsiella aerogenes): inactive
Activity (Staphylococcus aureus [2]): inactive
Activity (Klebsiella pneumoniae): inactive
Activity (Acinetobacter baumannii): inactive
Activity (Pseudomonas aeruginosa): inactive

COc1cc(C(=O)/C=C/c2ccc(Cl)cc2)cc([N+](=O)[O-])c1O
Activity (Klebsiella aerogenes): inactive
MIC (Staphylococcus aureus [1]): 32 µg/mL (≈ 95.9 µM)
Activity (Staphylococcus aureus [2]): Active
Activity (Klebsiella pneumoniae): inactive
Activity (Acinetobacter baumannii): inactive
MIC (Staphylococcus aureus [3]): 16 µg/mL (≈ 47.9 µM)
Activity (Pseudomonas aeruginosa): inactive

COc1cc(C(=O)/C=C/c2cccc(Cl)c2)cc([N+](=O)[O-])c1O
Activity (Klebsiella aerogenes): inactive
MIC (Staphylococcus aureus [1]): 64 µg/mL (≈ 192 µM)
Activity (Staphylococcus aureus [2]): Active
Activity (Klebsiella pneumoniae): inactive
Activity (Acinetobacter baumannii): inactive
MIC (Staphylococcus aureus [3]): 16 µg/mL (≈ 47.9 µM)
Activity (Pseudomonas aeruginosa): inactive

COc1cc(C(=O)/C=C/c2ccc(F)cc2)cc([N+](=O)[O-])c1O
Activity (Klebsiella aerogenes): inactive
MIC (Staphylococcus aureus [1]): 64 µg/mL (≈ 202 µM)
Activity (Staphylococcus aureus [2]): Active
Activity (Klebsiella pneumoniae): inactive
Activity (Acinetobacter baumannii): inactive
MIC (Staphylococcus aureus [3]): 64 µg/mL (≈ 202 µM)
Activity (Pseudomonas aeruginosa): inactive

COc1cc(C(=O)/C=C/c2cccc(F)c2)cc([N+](=O)[O-])c1O
Activity (Klebsiella aerogenes): inactive
MIC (Staphylococcus aureus [1]): 64 µg/mL (≈ 202 µM)
Activity (Staphylococcus aureus [2]): Active
Activity (Klebsiella pneumoniae): inactive
Activity (Acinetobacter baumannii): inactive
MIC (Staphylococcus aureus [3]): 32 µg/mL (≈ 101 µM)
Activity (Pseudomonas aeruginosa): inactive

COc1cc(C(=O)/C=C/c2cccc(Cl)c2)ccc1O
Activity (Klebsiella aerogenes): inactive
Activity (Staphylococcus aureus [2]): inactive
Activity (Klebsiella pneumoniae): inactive
Activity (Acinetobacter baumannii): inactive
Activity (Pseudomonas aeruginosa): inactive

From ChEMBL document CHEMBL6114934, “Guaiacol-chalcone and nitroguaiacol-chalcone derivatives: In vitro and in silico antibacterial evaluation” (2025)
